Reference: patent US9862754B2, “Peptide analogs for treating diseases and disorders” (KeyBioscience AG, priority 2011, dated 2018)
Numbered stars: 1 amine (or outer) side, 2 acyl side, 3 side chain; on linkers, the order of the positions; unused ones are H or OH. * marks the point of attachment. Suc = O=C(CCC(=O)[*:2])[*:1]; Propionyl = CCC(=O)*

What was measured:
Format in all cases: in vivo, rat
[1] = Example 7: insulin tolerance test in Zucker Diabetic Fatty rats; details: ZDF rats; metformin 400 mg/kg/day oral, UGP302 5 μg/kg/day s.c.
Method: (§1) To assess the potential of UGP302 (SEQ ID NO: 15) in combination with metformin, Zucker Diabetic Fatty rats were used. At the age of 6 weeks 40 rats were randomized into four groups according to HbA1c, FPG and BW. The groups were: Control (Vehicle), Metformin 400 mg/kg/day, UGP302 5 μg/kg/day and the combination of the two molecules in the stated respective amounts. The treatments were given once daily, and metformin was dosed orally, while UGP302 was given subcutaneously, and the animals were treated for 8 weeks. Fasting blood glucose (FPG) and non-fasted blood glucose (PPG) were monitored biweekly, while HbA1c was measured at termination.
(§2) To further assess the effect of both single doses of each molecule and the combination of these at those same doses, the rats underwent an oral glucose tolerance test (OGTT, FIGS. 23A-23B) and an insulin tolerance test (ITT, FIGS. 24A-24B).

[2] = Example 7: combination with metformin in Zucker Diabetic Fatty rats, FPG, PPG, HbA1c; details: ZDF rats; 8 weeks once daily; metformin 400 mg/kg/day oral, UGP302 5 μg/kg/day s.c.
Method: as §1

[3] = Example 7: oral glucose tolerance test in Zucker Diabetic Fatty rats; details: ZDF rats; metformin 400 mg/kg/day oral, UGP302 5 μg/kg/day s.c.
Method: as §1, §2

[4] = Example 3: short-term oral treatment, body weight and food intake in DIO rats; details: for reduction in body weight vs oral sCT at same dose: DIO rats; for energy balance vs equivalent doses of oral sCT: 0.5, 1 and 2 mg/kg doses p.o., male DIO rats
Method: The study was performed in male Levin-DIO rats (diet-sensitive) and Levin-DR (diet-resistant) (TacLevin: CD (SD) DIO) (Taconic, Hudson, N.Y., U.S.A.) obtained at age 6-7 weeks. On arrival, DIO rats were given high fat diet (60 kcal %) (#D12495, Research Diets Inc., New Brunswick, N.J., USA) and kept on the same diet for 12 weeks prior to and during the experiment. DR rats were given low-fat diet and served as control group. Animals were pair-wise housed throughout the study. Rats were handled and pre-dosed once daily with MilliQ H2O for 2-3 weeks prior to experimental start to reduce stress-induced hyperglycemia. On the day prior to study start animals were given a single dose of vehicle. Baseline parameters were recorded in an overnight fasting (16 h) condition. Rats were randomized into treatment groups based on fasting body weight (BW) and fasting plasma glucose (FPG). Body weight, food and water intake were recorded prior to and at study end.
Animals treated with oral sCT or oral UGP284/UGP298/UGP302 received doses of 0.5 mg/kg, 1.0 mg/kg or 2.0 mg/kg combined with 150 mg/kg 5-CNAC—all dissolved in milliQ H2O.
(§3) Drug administration were given by per oral (p.o.) gavage b.i.d. during the study period and as single dose in the morning prior to start of OGTT.
(§4) Following the initial (1st) OGTT, animals were randomized into treatment groups based on FBG and BW. Animals were pre-treated 3 days (b.i.d.) prior to 2nd OGTT. The study was performed in an x-over design with each animal being its own control.
(§5) Statistical analysis was performed by one-way ANOVA followed by the Dunnett's post hoc test for multiple comparison. Student's t-test was performed to compare two paired group. All analysis was performed using GRAPHPAD PRISM software (GraphPad Prism, San Diego, Calif. U.S.A). Incremental area under curve (iAUC) during OGTT was calculated by the trapezoidal method. A value of P<0.05 was considered to be significant. All data are presented as mean±standard error of the mean (SEM).
FIG. 9A, FIG. 9B, FIG. 9C, FIG. 9D, FIG. 9E, and FIG. 9F show the effect of three different doses of oral sCT/UGP284/UGP298/UGP302 containing 0.5, 1 and 2 mg/kg compound were applied by gavage twice daily to 4 groups of rats for 3 days. * P<0.05, ** P<0.01 vs oral sCT. Results are presented as means±SEM.

[5] = Example 3: OGTT after 3 days of oral treatment in DIO rats; details: doses of 0.5, 1 and 2 mg/kg p.o.
Method: as §3
Animals were given 2 g/kg single dose dissolved in milliQ H20.
as §4
OGTT Following Overnight Fasting (16 h):
Blood sampling and glycemia were measured by heated tail venous puncture. Whole blood glucose levels were determined with an ACCU-CHEK® Avia blood glucose meter (Roche Diagnostics, Rotkreuz, Switzerland). Blood (approx 300 μl) is collected in 1 ml MiniCollect K3EDTA plasma-tube (Greiner-Bio-One GmbH, Frickenhausen, Germany), inverted, and stored on ice. Tubes are centrifuged 3000×g (5000 rpm in table centrifuge) for 10 min at 4° C. and plasma obtained. Plasma samples are stored at −20° C. until analysis. A total of ˜2.5 ml blood is obtained during OGTT (˜0.3% of body weight).
as §5
FIG. 10A, FIG. 10B, FIG. 10C, FIG. 10D, FIG. 10E, and FIG. 10F show the effect of oral sCT versus oral UGPs on glucose tolerance during OGTT in DIO rats. Three different doses of oral sCT/UGP284/UGP298/UGP302 containing 0.5, 1 and 2 mg/kg compound were applied by gavage twice daily to 4 groups of rats for 3 days prior to OGTT. The experimental set-up was a cross-over design. * P<0.05, ** P<0.01, *** P<0.001 vs oral vehicle. Results are presented as means±SEM.

Compound | insulin tolerance (ITT) [1] | fasting blood glucose (FPG) [2] | non-fasted blood glucose (PPG) [2] | glucose tolerance (OGTT) [3] | reduction in body weight vs oral sCT at same dose ([4]; 2 mg/kg p.o. b.i.d. for 3 days) | energy balance vs equivalent doses of oral sCT [4] | glucose tolerance during OGTT [5] | reduction in body weight vs oral sCT at same dose ([4]; 1 mg/kg p.o. b.i.d. for 3 days)
CN(C)C(=N)N=C(N)N [metformin, reference compound] | individually improve | reduced | reduced | individually improve | – | – | – | –
PrCSNLSTCVLGKLSQELHKLQTYPRTNTGSGTP-NH2 (Propionyl-CSNLSTCVLGKLSQELHKLQTYPRTNTGSGTP-NH2; ends and bridges not checked) [UGP284, calcitonin mimetic] | – | – | – | – | significantly difference at 2 mg/kg dose | superiority to equivalent doses of oral sCT | improvement in glucose tolerance | –
SuccCSNLSTCVLGKLSQELHKLQTYPRTNTGSGTP-NH2 (Suc-CSNLSTCVLGKLSQELHKLQTYPRTNTGSGTP-NH2; ends and bridges not checked) [UGP298, calcitonin mimetic] | – | – | – | – | significantly different when compared with oral sCT | superiority to equivalent doses of oral sCT | improvement in glucose tolerance | significantly different when compared with oral sCT
